Experimental data: patent US7022736B2, “Enzyme inhibitors” (Istituto Di Ricerche Di Biologia Molecolare P Angeletti SpA, priority 1998, dated 2006)
Where two headings read alike, the source gives them in different places.

What was measured:
[1] = target: T1, HCV RdRp (NS5B RNA-dependent RNA polymerase) (Hepatitis C virus genotype 1b, UniProt P26663); test: Inhibition of hepatitis C virus RdRp (poly(A)/oligo(U), [3H]UTP incorporation); type: biochemical
T1 construct: The HCV NS5B protein is the viral RdRp; made in house; host or cells: insect cells infected with recombinant baculovirus
Outline: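 Baculovirus-expressed recombinant NS5B (20 nM) polymerised on poly(A) template (10 μg/ml) with oligo(U)12 primer, 10 μM UTP plus [3H]UTP, pH 7.5 Tris buffer with 5 mM MgCl2, 1 h at 22 °C. Acid-insoluble radioactivity counted on filters; IC50 fitted from residual activity with slope term.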

[2] = target: T2, reverse transcriptase of HIV (HIV-1 RT) (Human immunodeficiency virus type 1 group M subtype B, UniProt P03366); test: Inhibition of HIV-1 reverse transcriptase ([3H]dTTP incorporation); type: biochemical, Human Immunodeficiency Virus-1; conditions: Tables IXa-IXc; unit inferred; NA=not active as an inhibitor
T2 construct: the reverse transcriptase of HIV (HIV -1RT) from Boehringer Mannhium; purchased Boehringer Mannheim (printed 'Boehringer Mannhium')
Description: Test for Inhibition of Human Immunodeficiency Virus-1 Reverse Transcriptase
Analogous assays employed the reverse transcriptase of HIV (HIV -1RT) from Boehringer Mannhium.
Incorporation of radioactive dTTP was measured as follows. The standard reaction (100 μl) was carried out in a buffer containing 50 mM tris/HCl pH 8.2, 2.5 mM MgCl 2, 1 mM DTT, 80 mM KCl, 5 mM EGTA, 0.05% Triton X-100, 1 μCi[3H] dTTP (40 Ci/mmol, NEN), 10 μM […] and 10 μg/ml poly(A)/dT (from Pharmacia).

[3] = target: T3, polymerase of hepatitis B virus (HBV pol) (Hepatitis B virus genotype D subtype ayw, UniProt P03156); test: Inhibition of hepatitis B virus polymerase (32P-dNTP incorporation, viral particles from patient sera); type: biochemical; conditions: Tables IXa-IXc; unit inferred; NA=not active as an inhibitor
T3 construct: obtained in the form of viral particles from the sera of HBV positive patients; from tissue; host or cells: sera of HBV positive patients (viral particles)
Description: Analogous assays employed the polymerase of hepatitis B virus (HBV pol), obtained in the form of viral particles from the sera of HBV positive patients. These particles contain a polymerase bound to an incomplete double stranded DNA template. In the assay the incorporation of ^32P-dNTP is measured as radioactivity incorporated in acid insoluble precipitate.
The standard reaction (100 μl) was carried out in a buffer containing 50 mM tris/HCl pH 7.5, 30 mM MgCl 2 , 1 mM DTT, 100 mM KCl, 0.02% Triton X-100, 1 μCi[^32P] dCTP (300 Ci/mmol, NEN), 1 μM dATP, dTTP, dGTP. After 1 hour incubation at 37° C. the reaction was stopped by adding 100 μl of 20% TCA and applying samples to DE81 filters. The filters were processed and IC50 values calculated as described above.

[4] = Tables I-VIII, 20 nM NS5B, 1 hour at 22° C., read-out: IC 50 (μM), HCV-polymerase
[5] = Tables IXa-IXc, unit inferred, read-out: HCV (IC50)

T1 sequence (P26663 2420-3010): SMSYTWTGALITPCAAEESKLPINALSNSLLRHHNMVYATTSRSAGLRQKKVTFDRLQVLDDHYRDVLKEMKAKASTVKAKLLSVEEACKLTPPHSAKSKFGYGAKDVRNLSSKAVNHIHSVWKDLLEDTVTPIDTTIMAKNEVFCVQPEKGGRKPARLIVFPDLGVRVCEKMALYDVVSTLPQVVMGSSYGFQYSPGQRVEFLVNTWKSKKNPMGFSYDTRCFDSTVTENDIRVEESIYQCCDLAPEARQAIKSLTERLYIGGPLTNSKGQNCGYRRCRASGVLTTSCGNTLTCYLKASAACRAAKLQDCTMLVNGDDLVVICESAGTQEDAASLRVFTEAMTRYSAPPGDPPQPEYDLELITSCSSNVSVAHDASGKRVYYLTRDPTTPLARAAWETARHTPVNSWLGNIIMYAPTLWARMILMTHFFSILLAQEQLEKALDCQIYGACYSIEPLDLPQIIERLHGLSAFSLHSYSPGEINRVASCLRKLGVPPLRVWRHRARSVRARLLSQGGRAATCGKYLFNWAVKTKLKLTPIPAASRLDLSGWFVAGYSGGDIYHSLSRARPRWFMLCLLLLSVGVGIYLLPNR
T3 sequence (P03156 whole entry): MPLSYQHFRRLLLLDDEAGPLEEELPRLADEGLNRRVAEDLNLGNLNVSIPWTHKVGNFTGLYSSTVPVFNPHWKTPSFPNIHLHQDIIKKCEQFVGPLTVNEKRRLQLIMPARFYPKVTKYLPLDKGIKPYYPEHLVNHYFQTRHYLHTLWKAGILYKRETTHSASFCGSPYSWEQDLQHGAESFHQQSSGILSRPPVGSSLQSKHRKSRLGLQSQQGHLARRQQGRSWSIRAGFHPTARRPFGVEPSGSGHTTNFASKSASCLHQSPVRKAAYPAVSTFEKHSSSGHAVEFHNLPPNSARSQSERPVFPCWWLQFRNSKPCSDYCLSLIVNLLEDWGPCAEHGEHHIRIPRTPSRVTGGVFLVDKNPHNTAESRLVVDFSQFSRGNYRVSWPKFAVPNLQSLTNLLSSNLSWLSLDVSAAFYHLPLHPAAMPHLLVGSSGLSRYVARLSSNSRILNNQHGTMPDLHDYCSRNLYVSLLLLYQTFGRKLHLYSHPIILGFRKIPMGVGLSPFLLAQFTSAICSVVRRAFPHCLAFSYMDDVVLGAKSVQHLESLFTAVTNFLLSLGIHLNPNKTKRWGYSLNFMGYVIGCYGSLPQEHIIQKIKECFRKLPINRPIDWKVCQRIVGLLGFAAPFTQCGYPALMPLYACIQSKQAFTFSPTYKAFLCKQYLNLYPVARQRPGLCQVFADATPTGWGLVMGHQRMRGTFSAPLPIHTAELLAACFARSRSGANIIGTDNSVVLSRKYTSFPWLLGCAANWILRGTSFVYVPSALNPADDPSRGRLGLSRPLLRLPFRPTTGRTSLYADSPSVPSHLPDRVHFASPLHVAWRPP

For `N#Cc1cccc(Cl)c1COc1cccc(C(=O)C=C(O)C(=O)O)c1` [Example 107], the IC50 [1, 4] was 0.14 µM, the IC50 [1, 5] was 0.14 µM and the IC50 [2] was 58 µM.

With `COc1cc(C)c(C#N)c(COc2cccc(C(=O)C=C(O)C(=O)O)c2)c1` [Example 111] the IC50 [1, 4] was 0.12 µM, the IC50 [1, 5] was 0.12 µM and the IC50 [2] was 80 µM.

`N#Cc1ccccc1OCc1cccc(C(=O)C=C(O)C(=O)O)c1` [Example 112] was tested, and the IC50 [1, 4] was 1.33 µM, the IC50 [1, 5] was 1.33 µM and the IC50 [2] was 90 µM.

`N#Cc1ccc(Br)cc1COc1cccc(C(=O)C=C(O)C(=O)O)c1` [Example 113] was tested, and the IC50 [1, 4] was 0.1 µM, the IC50 [1, 5] was 0.1 µM and the IC50 [2] was 90 µM.

`O=C(O)C(O)=CC(=O)c1cccc(NS(=O)(=O)c2cc(Cl)cc(Cl)c2)c1` [Example 117] was tested, and the IC50 [1, 4] was 0.14 µM, the IC50 [1, 5] was 0.14 µM and the IC50 [2] was 100 µM.

`O=C(O)C(O)=CC(=O)c1cccc(NS(=O)(=O)c2c(Cl)cccc2Cl)c1` [Example 120] gave an IC50 [1, 4] of 0.36 µM, an IC50 [1, 5] of 0.36 µM and an IC50 [2] of 80 µM.

For `N#Cc1c(Cl)cc(Cl)cc1COc1cccc(C(=O)C=C(O)C(=O)O)c1` [Example 126], the IC50 [1, 4] was 0.056 µM, the IC50 [1, 5] was 0.056 µM and the IC50 [2] was 100 µM.

Compound `O=C(O)C(O)=CC(=O)c1cc(O)cc(OCc2ccccc2)c1` [Example 155] has an IC50 [1, 4] of 1.4 µM, an IC50 [1, 5] of 1.4 µM and an IC50 [2] of 130 µM.

`Cc1ccc(C(=O)C=C(O)C(=O)O)cc1` [Example 161] was tested, and the IC50 [1, 4] was 2.8 µM, the IC50 [1, 5] was 2.8 µM and the IC50 [2] was 320 µM.

`O=C(O)C(O)=CC(=O)c1ccc(-c2ccccc2)s1` [Example 196] showed an IC50 [1, 4] of 15 µM, an IC50 [1, 5] of 15 µM and an IC50 [2] of 50 µM. The IC50 [3] was 9 µM.

Compound `O=C(O)C(O)=CC(=O)c1ccc(Cc2ccccc2)s1` [Example 202] has an IC50 [1, 4] of 68 µM, an IC50 [1, 5] of 70 µM and an IC50 [2] of over 100 µM. For the same compound, the IC50 [3] was 9 µM.

In the case of `O=C(O)C(O)=CC(=O)c1ccc(Cc2cccc(F)c2)s1` [Example 205], the IC50 [1, 4] is reported as 74 µM, the IC50 [1, 5] is reported as 74 µM and the IC50 [3] is reported as 3.3 µM.

`O=C(O)C(O)=CC(=O)c1ccc(Cc2ccc(F)cc2)s1` [Example 206] showed an IC50 [1, 4] of 65 µM, an IC50 [1, 5] of 65 µM and an IC50 [3] of 2 µM.

`O=C(O)C(O)=CC(=O)c1ccc(-c2ccc(F)c(Cl)c2)o1` [Example 218] gave an IC50 [1, 4] of 41.2 µM, an IC50 [1, 5] of 41.2 µM and an IC50 [2] of 11.8 µM.

`Cc1sc(-c2ccccc2)cc1C(=O)C=C(O)C(=O)O` [Example 225] showed an IC50 [1, 4] of 167 µM, an IC50 [1, 5] of 167 µM and an IC50 [2] of 86 µM. For the same compound, the IC50 [3] was 4 µM.

`O=C(O)C(O)=CC(=O)C12CC3CC(CC(C3)C1)C2` [Example 243] was tested, and the IC50 [1, 4] was 6.7 µM, the IC50 [1, 5] was 6.7 µM and the IC50 [2] was 26.8 µM.

`O=C(O)C(O)=CC(=O)c1ccc(-c2cc(Cl)cc(Cl)c2)o1` [Example 258] showed an IC50 [1, 5] of over 100 µM and an IC50 [2] of 3.6 µM.
